Assay results as given in ChEMBL document CHEMBL1201862, “PubChem BioAssay data set” (2004).
Blank lines part the entries; values can stand above or below the molecule they belong to. Active and inactive are the calls of the source.

Experiments:
[1] = molecular target: Cytochrome P450 2C9 (Homo sapiens, UniProt P11712); settings: Potency
[2] = test system: HeLa; assay: HeLa cell cytotoxicity, dose response, cytotoxicity control, 24 h, cherry-picked samples (AID 504726); format: functional, cell-based; settings: Homo sapiens;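 further: potency for cytotoxicity as loss of luminescence signal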
[3] = molecular target: T1, Heat shock factor protein 1 (Mus musculus, UniProt P38532); assay: HSF1 potentiators in luciferase reporter cells, confirmation, cell-based, NIH3T3, luminescence, dose retest (AID 435004); format: functional;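 further: stress induced by proteasome inhibitor MG132 added 30 min after compound; luciferase reporter driven by HSF1 response element in NIH3T3 cells; actives raise luminescence as potentiators of the MG132 stress response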
T1 sequence (P38532 whole entry): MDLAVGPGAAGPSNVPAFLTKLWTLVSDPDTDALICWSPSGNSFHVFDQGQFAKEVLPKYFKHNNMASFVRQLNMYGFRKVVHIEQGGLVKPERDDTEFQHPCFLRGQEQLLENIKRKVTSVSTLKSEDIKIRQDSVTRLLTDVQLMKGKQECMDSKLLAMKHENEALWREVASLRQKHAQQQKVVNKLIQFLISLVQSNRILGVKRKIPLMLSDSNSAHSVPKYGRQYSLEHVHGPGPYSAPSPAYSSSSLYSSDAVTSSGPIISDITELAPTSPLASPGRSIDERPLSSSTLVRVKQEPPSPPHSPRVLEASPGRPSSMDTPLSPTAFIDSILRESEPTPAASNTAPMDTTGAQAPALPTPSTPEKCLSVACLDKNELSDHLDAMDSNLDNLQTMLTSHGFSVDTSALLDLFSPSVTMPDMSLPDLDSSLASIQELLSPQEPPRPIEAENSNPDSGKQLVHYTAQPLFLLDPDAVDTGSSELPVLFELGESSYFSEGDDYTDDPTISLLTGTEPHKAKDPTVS

[4] = molecular target: Photoreceptor-specific nuclear receptor (Homo sapiens, UniProt Q9Y5X4); format: functional;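 further: potency for compounds that break the NR2E3 corepressor complex and count as activators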
[5] = molecular target: Peroxisome proliferator-activated receptor gamma/Nuclear receptor corepressor 2 (Homo sapiens, UniProt P37231+Q9Y618); format: functional
[6] = molecular target: Mucolipin-3 (Homo sapiens, UniProt Q8TDD5); assay: Dose response cell-based high-throughput screening assay for agonists of the transient receptor potential channel ML3 (TRPML3). [Related pubchem assays: 1526, 1424, 1448 ]; format: functional
[7] = molecular target: T2, Ion channel NompC (Danio rerio, UniProt Q7T1G6); assay: TRPML3 and TRPML2 channel agonists, cell-based, patch clamp, Fura-2 profiling panel, panel member TRPN1 Dose Response (AID 2116)
[8] = molecular target: T3, Corticotropin-releasing factor receptor 2/Corticotropin-releasing factor-binding protein (Homo sapiens, UniProt P24387+Q13324); assay: activators of CRF receptor 2 with binding protein – uHTS hits, confirmation (AID 602473); format: functional; settings: read-out: EC50_Mean
T3 sequence (Q13324 whole entry): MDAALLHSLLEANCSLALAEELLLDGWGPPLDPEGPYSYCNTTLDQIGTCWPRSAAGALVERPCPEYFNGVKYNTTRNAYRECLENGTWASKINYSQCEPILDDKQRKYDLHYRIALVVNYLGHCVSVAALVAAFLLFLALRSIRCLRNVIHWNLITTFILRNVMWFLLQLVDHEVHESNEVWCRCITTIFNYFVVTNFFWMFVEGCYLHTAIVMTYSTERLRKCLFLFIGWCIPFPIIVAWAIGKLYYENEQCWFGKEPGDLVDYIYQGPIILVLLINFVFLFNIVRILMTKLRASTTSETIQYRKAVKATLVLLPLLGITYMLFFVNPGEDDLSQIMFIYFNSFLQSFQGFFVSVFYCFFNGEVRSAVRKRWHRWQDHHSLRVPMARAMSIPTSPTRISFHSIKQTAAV
T3 sequence (P24387 whole entry): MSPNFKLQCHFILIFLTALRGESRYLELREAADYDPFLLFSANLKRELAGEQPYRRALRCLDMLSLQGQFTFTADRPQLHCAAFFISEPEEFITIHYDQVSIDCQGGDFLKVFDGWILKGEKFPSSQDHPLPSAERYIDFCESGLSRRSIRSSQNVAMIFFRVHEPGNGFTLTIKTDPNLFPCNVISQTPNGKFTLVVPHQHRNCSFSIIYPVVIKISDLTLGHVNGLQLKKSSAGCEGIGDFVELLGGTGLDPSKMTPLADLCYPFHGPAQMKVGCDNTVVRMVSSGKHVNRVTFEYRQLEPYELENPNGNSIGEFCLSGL

[9] = molecular target: T2, Ion channel NompC; assay: Fluorescence counterscreen assay for TRPML3 agonists: dose response cell-based high-throughput screening assay to identify agonists of the transient receptor potential channel N1 (TRPN1). [Related pubchem assays: 1526, 1424, 1448 ]; format: functional
[10] = molecular target: Metabotropic glutamate receptor 4 (Rattus norvegicus, UniProt P31423); assay: Modulation of the Metabotropic Glutamate Receptor mGluR4: Rat PAM Potency. [Related pubchem assays (depositor defined):AID2437, AID2807]; format: functional
[11] = molecular target: Metabotropic glutamate receptor 4 (Homo sapiens, UniProt Q14833); assay: Modulation of the Metabotropic Glutamate Receptor mGluR4: Potency at human mGluR4. Modulation of intracellular Ca2+ using Fluo-4, AM, in CHO expressing recombinant receptor [Related pubchem assays (depositor defined):AID2437, AID2807]; format: functional, cell-based
[12] = test system: BJ; assay: cells; format: functional, cell-based; settings: Homo sapiens
[13] = test system: BJ; assay: cytotoxicity toward BJ-TERT fibroblasts, dose response, cell-based, RAS-independent, luminescence (AID 1933); format: functional; settings: Homo sapiens
[14] = test system: BJ; assay: cytotoxicity toward BJ-TERT-LT-ST fibroblasts, dose response, cell-based, RAS-independent, luminescence (AID 1935); format: functional; settings: Homo sapiens;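 further: BJ fibroblasts immortalized with TERT plus LT and ST oncogenes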
[15] = cytotoxicity toward DRD oncogenic fibroblasts, dose response, cell-based, non-viral oncogenic, luminescence (AID 1934); format: functional; settings: Homo sapiens
[16] = molecular target: Wee1-like protein kinase (Homo sapiens, UniProt P30291); assay: Dose Response Cell-based Assay for Inhibitors of Wee1 Degradation. [Related pubchem assays: 1410, 1321 ]; format: functional
[17] = Luminescence Cell-Based Dose Retest to Confirm Inhibitors of Cancer Stem Cells. [Related pubchem assays (depositor defined):AID2717, AID2721]; format: functional; settings: Homo sapiens
[18] = molecular target: G2/mitotic-specific cyclin-B1 (Homo sapiens, UniProt P14635); assay: Counterscreen assay for inhibitors of Wee1 degradation: dose response cell-based assay to identify inhibitors of cyclin B degradation. [Related pubchem assays: 1410, 1321 ]; format: functional
G2/mitotic-specific cyclin-B1, sequence (P14635 whole entry): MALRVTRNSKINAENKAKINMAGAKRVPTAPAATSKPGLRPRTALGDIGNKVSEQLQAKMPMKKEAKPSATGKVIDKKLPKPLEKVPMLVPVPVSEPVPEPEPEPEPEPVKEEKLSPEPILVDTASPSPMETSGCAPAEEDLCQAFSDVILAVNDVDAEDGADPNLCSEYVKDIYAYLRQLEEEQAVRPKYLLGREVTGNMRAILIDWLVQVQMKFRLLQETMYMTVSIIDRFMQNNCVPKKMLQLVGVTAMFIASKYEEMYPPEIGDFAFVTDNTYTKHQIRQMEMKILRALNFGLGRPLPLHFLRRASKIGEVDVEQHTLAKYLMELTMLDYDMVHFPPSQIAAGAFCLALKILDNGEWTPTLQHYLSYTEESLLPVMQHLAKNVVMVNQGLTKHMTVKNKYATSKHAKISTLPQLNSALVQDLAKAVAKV

T2 sequence (Q7T1G6 whole entry): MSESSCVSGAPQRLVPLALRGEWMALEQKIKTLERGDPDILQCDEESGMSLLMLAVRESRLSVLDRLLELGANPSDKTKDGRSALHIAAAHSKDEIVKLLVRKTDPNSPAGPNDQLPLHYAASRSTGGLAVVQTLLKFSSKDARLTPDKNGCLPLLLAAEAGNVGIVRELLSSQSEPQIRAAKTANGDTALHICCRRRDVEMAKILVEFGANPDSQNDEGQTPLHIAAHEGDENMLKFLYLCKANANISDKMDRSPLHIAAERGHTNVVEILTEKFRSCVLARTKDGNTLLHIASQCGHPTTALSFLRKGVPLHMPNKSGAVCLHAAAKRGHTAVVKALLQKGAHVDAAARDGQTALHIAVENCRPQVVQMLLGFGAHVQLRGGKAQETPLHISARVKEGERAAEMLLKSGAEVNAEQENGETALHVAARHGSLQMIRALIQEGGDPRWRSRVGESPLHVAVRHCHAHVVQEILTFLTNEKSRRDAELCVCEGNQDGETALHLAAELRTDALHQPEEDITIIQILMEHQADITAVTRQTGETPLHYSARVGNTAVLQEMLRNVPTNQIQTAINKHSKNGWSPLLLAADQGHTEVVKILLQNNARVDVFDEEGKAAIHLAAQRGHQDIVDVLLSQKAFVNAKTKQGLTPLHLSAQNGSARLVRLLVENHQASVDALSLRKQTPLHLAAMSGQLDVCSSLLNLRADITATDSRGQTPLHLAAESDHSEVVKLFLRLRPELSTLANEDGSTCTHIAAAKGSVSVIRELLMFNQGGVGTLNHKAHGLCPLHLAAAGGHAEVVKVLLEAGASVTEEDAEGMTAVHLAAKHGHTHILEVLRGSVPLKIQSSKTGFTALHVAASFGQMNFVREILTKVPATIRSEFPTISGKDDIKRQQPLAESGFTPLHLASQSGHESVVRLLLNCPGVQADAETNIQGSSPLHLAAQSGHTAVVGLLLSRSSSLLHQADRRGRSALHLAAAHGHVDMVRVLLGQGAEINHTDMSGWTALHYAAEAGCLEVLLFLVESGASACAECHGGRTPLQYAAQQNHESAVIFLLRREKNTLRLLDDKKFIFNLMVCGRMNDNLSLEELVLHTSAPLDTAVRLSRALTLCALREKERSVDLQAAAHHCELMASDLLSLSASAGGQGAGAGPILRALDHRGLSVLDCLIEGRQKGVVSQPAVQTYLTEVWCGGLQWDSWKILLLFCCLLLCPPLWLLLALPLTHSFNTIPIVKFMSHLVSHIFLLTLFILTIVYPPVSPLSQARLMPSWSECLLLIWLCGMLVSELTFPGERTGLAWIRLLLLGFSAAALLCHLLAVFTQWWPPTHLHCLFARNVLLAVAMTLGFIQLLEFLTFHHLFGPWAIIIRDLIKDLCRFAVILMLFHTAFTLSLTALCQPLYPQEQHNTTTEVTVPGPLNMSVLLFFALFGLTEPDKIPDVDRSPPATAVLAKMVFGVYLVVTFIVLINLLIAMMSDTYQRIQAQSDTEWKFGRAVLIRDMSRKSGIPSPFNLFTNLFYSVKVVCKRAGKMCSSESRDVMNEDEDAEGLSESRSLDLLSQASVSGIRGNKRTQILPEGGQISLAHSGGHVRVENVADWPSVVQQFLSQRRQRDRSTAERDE
Wee1-like protein kinase, sequence (P30291 whole entry): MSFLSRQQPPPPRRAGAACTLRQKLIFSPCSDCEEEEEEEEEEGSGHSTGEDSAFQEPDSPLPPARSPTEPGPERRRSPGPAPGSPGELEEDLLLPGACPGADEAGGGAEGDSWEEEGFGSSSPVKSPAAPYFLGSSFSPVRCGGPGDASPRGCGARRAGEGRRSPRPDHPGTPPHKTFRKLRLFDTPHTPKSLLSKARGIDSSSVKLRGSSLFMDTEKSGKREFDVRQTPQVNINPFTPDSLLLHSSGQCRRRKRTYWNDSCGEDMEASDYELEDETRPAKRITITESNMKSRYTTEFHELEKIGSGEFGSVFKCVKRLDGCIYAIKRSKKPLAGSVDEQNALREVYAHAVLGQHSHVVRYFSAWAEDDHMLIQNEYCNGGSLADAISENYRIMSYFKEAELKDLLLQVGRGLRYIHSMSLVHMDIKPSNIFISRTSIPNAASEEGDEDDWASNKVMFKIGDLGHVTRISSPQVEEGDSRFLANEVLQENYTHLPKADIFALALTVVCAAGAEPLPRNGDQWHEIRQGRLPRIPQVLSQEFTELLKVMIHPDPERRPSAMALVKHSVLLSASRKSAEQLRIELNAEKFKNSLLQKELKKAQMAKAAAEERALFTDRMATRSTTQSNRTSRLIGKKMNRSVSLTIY
Metabotropic glutamate receptor 4 (Rattus norvegicus, UniProt P31423), sequence (P31423 whole entry): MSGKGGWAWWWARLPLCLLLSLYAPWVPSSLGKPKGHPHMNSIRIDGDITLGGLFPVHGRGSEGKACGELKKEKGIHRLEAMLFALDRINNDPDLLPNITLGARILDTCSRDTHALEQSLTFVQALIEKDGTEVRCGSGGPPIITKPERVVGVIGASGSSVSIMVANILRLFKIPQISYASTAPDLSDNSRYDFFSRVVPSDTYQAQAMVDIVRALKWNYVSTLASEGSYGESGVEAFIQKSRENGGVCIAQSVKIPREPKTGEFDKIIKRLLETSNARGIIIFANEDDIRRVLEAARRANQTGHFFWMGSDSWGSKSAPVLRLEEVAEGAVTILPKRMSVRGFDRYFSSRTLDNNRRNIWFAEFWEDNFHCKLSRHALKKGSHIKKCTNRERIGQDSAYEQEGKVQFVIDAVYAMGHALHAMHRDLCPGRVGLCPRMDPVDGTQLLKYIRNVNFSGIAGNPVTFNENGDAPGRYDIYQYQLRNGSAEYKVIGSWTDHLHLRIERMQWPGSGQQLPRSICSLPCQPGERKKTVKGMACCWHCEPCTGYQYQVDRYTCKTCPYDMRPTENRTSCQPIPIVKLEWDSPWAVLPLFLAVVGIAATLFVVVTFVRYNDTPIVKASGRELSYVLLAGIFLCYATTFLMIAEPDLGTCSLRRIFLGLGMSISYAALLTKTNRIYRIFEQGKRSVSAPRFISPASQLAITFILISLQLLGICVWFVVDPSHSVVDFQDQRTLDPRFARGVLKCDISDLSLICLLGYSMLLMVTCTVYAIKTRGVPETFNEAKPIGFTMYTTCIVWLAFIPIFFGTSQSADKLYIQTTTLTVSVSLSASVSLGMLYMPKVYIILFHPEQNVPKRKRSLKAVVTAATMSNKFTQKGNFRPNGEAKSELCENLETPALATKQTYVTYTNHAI
Mucolipin-3, sequence (Q8TDD5 whole entry): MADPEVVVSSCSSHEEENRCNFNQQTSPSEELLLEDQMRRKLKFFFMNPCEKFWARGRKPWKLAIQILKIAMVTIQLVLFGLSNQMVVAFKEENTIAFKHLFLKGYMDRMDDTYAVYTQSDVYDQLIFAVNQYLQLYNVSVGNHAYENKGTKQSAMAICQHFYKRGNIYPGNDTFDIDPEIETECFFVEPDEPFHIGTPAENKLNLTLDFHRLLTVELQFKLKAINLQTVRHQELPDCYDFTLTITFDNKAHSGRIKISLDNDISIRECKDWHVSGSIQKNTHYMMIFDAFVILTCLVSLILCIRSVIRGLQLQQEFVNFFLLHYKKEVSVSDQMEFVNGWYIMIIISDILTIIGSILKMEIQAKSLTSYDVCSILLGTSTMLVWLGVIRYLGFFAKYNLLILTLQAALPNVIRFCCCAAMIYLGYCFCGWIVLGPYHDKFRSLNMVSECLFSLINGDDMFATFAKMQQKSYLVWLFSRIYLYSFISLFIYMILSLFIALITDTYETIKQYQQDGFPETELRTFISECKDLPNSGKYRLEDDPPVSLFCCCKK
Metabotropic glutamate receptor 4 (Homo sapiens, UniProt Q14833), sequence (Q14833 whole entry): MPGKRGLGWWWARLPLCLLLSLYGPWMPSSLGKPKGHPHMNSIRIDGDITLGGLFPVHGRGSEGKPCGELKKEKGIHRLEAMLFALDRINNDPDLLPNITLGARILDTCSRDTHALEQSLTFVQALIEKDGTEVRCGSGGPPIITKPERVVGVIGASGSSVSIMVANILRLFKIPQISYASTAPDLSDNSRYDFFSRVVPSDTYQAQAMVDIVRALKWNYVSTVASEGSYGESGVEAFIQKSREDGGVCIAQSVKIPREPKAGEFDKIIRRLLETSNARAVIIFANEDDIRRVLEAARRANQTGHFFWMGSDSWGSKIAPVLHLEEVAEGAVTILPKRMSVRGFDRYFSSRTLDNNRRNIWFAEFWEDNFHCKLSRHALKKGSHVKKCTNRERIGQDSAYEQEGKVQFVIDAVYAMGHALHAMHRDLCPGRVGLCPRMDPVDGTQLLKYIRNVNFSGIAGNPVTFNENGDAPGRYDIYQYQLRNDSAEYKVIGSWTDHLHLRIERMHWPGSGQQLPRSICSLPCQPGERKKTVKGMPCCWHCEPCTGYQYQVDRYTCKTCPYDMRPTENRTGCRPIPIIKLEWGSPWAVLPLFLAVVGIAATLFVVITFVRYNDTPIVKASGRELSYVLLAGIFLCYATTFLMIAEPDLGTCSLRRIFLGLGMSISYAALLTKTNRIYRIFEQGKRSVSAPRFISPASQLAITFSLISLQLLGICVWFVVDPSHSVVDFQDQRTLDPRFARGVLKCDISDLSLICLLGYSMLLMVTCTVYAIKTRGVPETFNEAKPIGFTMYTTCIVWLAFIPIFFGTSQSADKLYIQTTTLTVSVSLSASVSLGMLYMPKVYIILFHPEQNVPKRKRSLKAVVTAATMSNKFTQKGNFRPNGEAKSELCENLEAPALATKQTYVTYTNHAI

AC50 [1]: 5.01 µM (inconclusive)
Compound: COC(=O)C12CC3(CCC4C5C(C(OCc6ccccc6)C41)C52)OCCO3 (stereo not drawn)

Compound: O=c1c2ccccc2nc(/C=C\c2ccccc2[N+](=O)[O-])n1-c1ccccc1O
AC50 [2]: 94.2 µM (active)

EC50 [3]: > 260 µM (inactive)
IC50 [4]: > 39.8 µM (not active)
IC50 [5]: 4.1 µM (active)
Compound: COc1cc(C2C(C(=O)c3cc4ccccc4o3)=C(O)C(=O)N2c2cc(C)on2)cc(OC)c1OC (stereo not drawn)

EC50 [6]: 0.823 µM (active)
EC50 [7]: 14 µM (inactive)
EC50 [8]: 13.7 µM (active)
EC50 [9]: > 29.9 µM (not active)
Compound: O=S(=O)(NC1CCCCC1N1CCOCC1)c1ccc(Cl)cc1 (stereo not drawn)

EC50 [10]: 11.1 µM (active)
EC50 [11]: 11.8 µM (active)
Compound: O=C(Nc1ccc(Cl)c(Cl)c1)c1ccno1

Compound: Cc1ccc(/C=N/NC(=O)c2ccc3c(c2)OCCO3)s1
EC50 [12]: 140 µM (active)
EC50 [13]: 12.4 µM (active)
EC50 [14]: > 150 µM (inconclusive)
EC50 [15]: 17.9 µM (active)
EC50 [16]: > 49.7 µM (not active)
AC50 [17]: 1.48 µM (active)
EC50 [18]: > 49.7 µM (not active)
